SMILES strings stand for the structures.

The results in this text go back to patent EP2567959B1, “6-(4-HYDROXY-PHENYL)-3-STYRYL-1H-PYRAZOLO[3,4-B]PYRIDINE-4-CARBOXYLIC ACID AMIDE DERIVATIVES AS KINASE INHIBITORS” (SANOFI, priority 2011, dated 2013).

For one test, the target named is T1, human full-length recombinant PKC βII (Homo sapiens, UniProt P05771).
T1 construct: Active human full-length recombinant PKC βII; purchased Invitrogen GmbH, Darmstadt, Germany
T1 sequence (P05771 1-673 isoform P05771-2): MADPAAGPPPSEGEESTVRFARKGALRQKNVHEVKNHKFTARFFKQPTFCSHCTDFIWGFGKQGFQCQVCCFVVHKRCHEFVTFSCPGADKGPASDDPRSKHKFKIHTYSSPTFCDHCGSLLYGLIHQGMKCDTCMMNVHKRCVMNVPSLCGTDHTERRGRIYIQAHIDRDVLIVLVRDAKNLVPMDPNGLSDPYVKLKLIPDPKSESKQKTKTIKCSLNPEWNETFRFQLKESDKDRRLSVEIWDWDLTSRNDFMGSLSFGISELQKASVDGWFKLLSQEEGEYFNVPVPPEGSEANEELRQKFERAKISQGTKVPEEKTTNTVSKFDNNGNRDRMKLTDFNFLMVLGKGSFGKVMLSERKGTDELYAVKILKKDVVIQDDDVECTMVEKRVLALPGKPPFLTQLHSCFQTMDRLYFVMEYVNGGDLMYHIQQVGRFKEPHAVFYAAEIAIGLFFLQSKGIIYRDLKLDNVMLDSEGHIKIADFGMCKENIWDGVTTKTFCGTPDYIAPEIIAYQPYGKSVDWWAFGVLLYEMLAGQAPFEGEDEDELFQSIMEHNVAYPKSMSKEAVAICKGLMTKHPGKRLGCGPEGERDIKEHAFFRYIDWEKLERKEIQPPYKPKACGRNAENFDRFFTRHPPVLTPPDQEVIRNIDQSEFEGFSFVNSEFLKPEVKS
In words: Determination of PKC βII inhibition (Caliper mobility-shift kinase assay, phosphorylation of fluorescein peptide substrate). The test is classed as biochemical. To be noted: 1 h; final compound concentration 1.14 µM (±0.15 µM); 60 min incubation at 32 °C. As for the experimental part:
Determination of PKC βII inhibition
PKC βII inhibition was determined according to the following protocol:
Active human full-length recombinant PKC βII and the peptide substrate, Fluorescein-RFARKGSLRQKNV, were purchased from Invitrogen GmbH, Darmstadt, Germany. Adenosine-5'-triphosphate (ATP), bovine serum albumine (BSA), dimethylsulphoxide (DMSO), 4-(2-hydroxyethyl)piperazine-1-ethanesulfonic acid (Hepes), Triton X-100, 1,2-Dioleoyl-sn-glycerol (DAG), L-α-Phosphatidyl-L-serine (PS), calcium chloride (CaCl2), and Pluronic F-68 were purchased from Sigma-Aldrich, Munich, Germany. Magnesium chloride, 1 M sodium hydroxide solution, 1M hydrochloric acid solution and EDTA were obtained from Merck Biosciences, Darmstadt, Germany.
Test compounds were diluted to three times the test concentration in buffer 1 (30 mM Hepes-NaOH, pH 7.4, 0.01 % Pluronic F-68 and 3 % (v/v) DMSO). The PKC βII enzyme was diluted to a concentration of 30 ng/ml in buffer 2 (30 mM Hepes-NaOH, pH 7.4, 15 mM MgCl2,150 µM CaCl2, 150 µg/ml PS, 60 µg/ml DAG, and 0.045 % (w/v) Triton X-100). The peptide substrate and ATP were diluted to concentrations of 3 µM and 120 µM, respectively, in buffer 2. Two µl of the compound solution were mixed with 2 µl of the diluted enzyme in a 384-well small volume microtiter plate (Greiner, Bio-One, Frickenhausen, Germany), and the kinase reaction was initiated by addition of 2 µl of the solution containing peptide substrate and ATP. After 60 min incubation at 32 °C, the reaction was stopped by addition of 20 µl of a solution containing 130 mM Hepes-NaOH, pH 7.4, 0.0195 % (v/v) Brij-35, 6.5 mM EDTA, 0.13 % chip coating reagent 3 (Caliper Lifescience Inc, Hopkinton, MA) and 6.5 % (v/v) DMSO. Phosphorylation of the substrate peptide was then detected on a Caliper 3000 instrument essentially as described by Pommereau et al (J. Biomol. Screening 2004, 9(5), 409-416). Separation conditions were as follows: Pressure -0.8 psi, upstream voltage - 3000 V, downstream voltage -800 V. Positive controls (buffer 1 instead of compound) and negative controls (buffer 1 instead of compound and buffer 2 instead of kinase solution) were run in parallel on each plate. Fractional turnover (R) was determined as the height of the peak of the phosphorylated peptide product divided by the sum of the unphosphorylated substrate and phosphorylated product peak heights. Percent-inhibition values for the test compounds were determined using the formula % Inhibition = 100*(1-(Rcompound-Rnegative control)/(Rpositive control-Rnegative control). [formula]
In the following table % inhibition values observed with example compounds at a final concentration of 1.14 µM (±0.15 µM) are listed: […]
On to `O=C(c1cc(-c2ccc(O)cc2)nc2[nH]nc([C@H]3C[C@@H]3c3ccccc3)c12)N1CCNCC1` (racemic) [Example 18, (±)-[6-(4-Hydroxy-phenyl)-3 trans-(2-phenyl-cyclopropyl)-1 H-pyrazolo[3,4-b]pyridin-4-yl]-piperazin-1-yl-methanone], for which the inhibition at 1.14 µM worked out at 94%.

The same test, now with this note: final compound concentration 1.14 µM (±0.15 µM); 60 min incubation at 32 °C.
Consider `O=C(c1cc(-c2ccc(O)cc2)nc2[nH]nc(/C=C/c3ccc(Cl)cc3)c12)N1CCNCC1` [Example 1, [3-[(E)-2-(4-Chloro-phenyl)-vinyl]-6-(4-hydroxy-phenyl)-1 H-pyrazolo[3,4-b]pyridin-4-yl]-piperazin-1-yl-methanone], for which the inhibition at 1.14 µM amounted to 86%. Same read-out and setting: the value for `O=C(c1cc(-c2ccc(O)cc2)nc2[nH]nc(/C=C/c3ccccc3)c12)N1CCNCC1` [Example 2, [6-(4-Hydroxy-phenyl)-3-((E)-styryl)-1H-pyrazolo[3,4-b]pyridin-4-yl]-piperazin-1-yl-methanone] was 97%; that for `CC1(C)CNCCN1C(=O)c1cc(-c2ccc(O)cc2)nc2[nH]nc(/C=C/c3ccccc3)c12` [Example 3, (2,2-Dimethyl-piperazin-1-yl)-[6-(4-hydroxy-phenyl)-3-((E)-styryl)-1 H-pyrazolo[3,4-b]pyridin-4-yl]-methanone] was 88%. Still for that read-out and setting: the same measure for `CC1(C)CN(C(=O)c2cc(-c3ccc(O)cc3)nc3[nH]nc(/C=C/c4ccccc4)c23)CCN1` [Example 4, (3,3-Dimethyl-piperazin-1-yl)-[6-(4-hydroxy-phenyl)-3-((E)-styryl)-1H-pyrazolo[3,4-b]pyridin-4-yl]-methanone]: 99%; for `CC(C)C[C@H]1CN(C(=O)c2cc(-c3ccc(O)cc3)nc3[nH]nc(/C=C/c4ccccc4)c23)CCN1` [Example 5, [6-(4-Hydroxy-phenyl)-3-((E)-styryl)-1H-pyrazolo[3,4-b]pyridin-4-yl]-((S)-3-isobutyl-piperazin-1-yl)-methanone]: 85%.

For `C[C@H]1CNCCN1C(=O)c1cc(-c2ccc(O)cc2)nc2[nH]nc(/C=C/c3ccccc3)c12` [Example 6, [6-(4-Hydroxy-phenyl)-3-((E)-styryl)-1H-pyrazolo[3,4-b]pyridin-4-yl]-((S)-2-methyl-piperazin-1-yl)-methanone], the inhibition at 1.14 µM stood at 98%. Regarding `Cc1cc(O)ccc1-c1cc(C(=O)N2CCNCC2)c2c(/C=C/c3ccccc3)n[nH]c2n1` [Example 7, [6-(4-Hydroxy-2-methyl-phenyl)-3-((E)-styryl)-1H-pyrazolo[3,4-b]pyridin-4-yl]-piperazin-1-yl-methanone], the inhibition at 1.14 µM was determined as 96%. On the same count and under the same terms, the value for `C[C@@H]1CN(C(=O)c2cc(-c3ccc(O)cc3)nc3[nH]nc(/C=C/c4ccccc4)c23)[C@@H](C)CN1` [Example 8, ((2S,5R)-2,5-Dimethyl-piperazin-1-yl)-[6-(4-hydroxy-phenyl)-3-((E)-styryl)-1H-pyrazolo[3,4-b]pyridin-4-yl]-methanone] was 97%. Same read-out and setting: the value for `COc1cc(-c2cc(C(=O)N3CCNCC3)c3c(/C=C/c4ccccc4)n[nH]c3n2)ccc1O` [Example 9, [6-(4-Hydroxy-3-methoxy-phenyl)-3-((E)-styryl)-1H-pyrazolo[3,4-b]pyridin-4-yl]-piperazin-1-yl-methanone] was 55%; that for `CC[C@H]1CNCCN1C(=O)c1cc(-c2ccc(O)cc2)nc2[nH]nc(/C=C/c3ccccc3)c12` [Example 10, ((S)-2-Ethyl-piperazin-1-yl)-[6-(4-hydroxy-phenyl)-3-((E)-styryl)-1H-pyrazolo[3,4-b]pyridin-4-yl]-methanone] was 87%; that for `C[C@H]1CNCCN1C(=O)c1cc(-c2ccc(O)cc2F)nc2[nH]nc(/C=C/c3ccccc3)c12` [Example 11, [6-(2-Fluoro-4-hydroxy-phenyl)-3-((E)-styryl)-1H-pyrazolo[3,4-b]pyridin-4-yl]-((S)-2-methyl-piperazin-1-yl)-methanone] was 99%. Still for that read-out and setting: the same measure for `O=C(c1cc(-c2ccc(O)c(F)c2)nc2[nH]nc(/C=C/c3ccccc3)c12)N1CCNCC1` [Example 12, [6-(3-Fluoro-4-hydroxy-phenyl)-3-((E)-styryl)-1H-pyrazolo[3,4-b]pyridin-4-yl]-piperazin-1-yl-methanone]: 97%; for `O=C(c1cc(-c2ccc(O)cc2Cl)nc2[nH]nc(/C=C/c3ccccc3)c12)N1CCNCC1` [Example 13, [6-(2-Chloro-4-hydroxy-phenyl)-3-((E)-styryl)-1 H-pyrazolo[3,4-b]pyridin-4-yl]-piperazin-1-yl-methanone]: 110%; for `CN(C)Cc1cccc(/C=C/c2n[nH]c3nc(-c4ccc(O)cc4)cc(C(=O)N4CCNCC4)c23)c1` [Example 14, [3-[(E)-2-(3-Dimethylaminomethyl-phenyl)-vinyl]-6-(4-hydroxy-phenyl)-1H-pyrazolo[3,4-b]pyridin-4-yl]-piperazin-1-yl-methanone]: 100%. With `CS(=O)(=O)Cc1cccc(/C=C/c2n[nH]c3nc(-c4ccc(O)cc4)cc(C(=O)N4CCNCC4)c23)c1` [Example 15, {6-(4-Hydroxy-phenyl)-3-[(E)-2-(3-methanesulfonylmethyl-phenyl)-vinyl]-1H-pyrazolo[3,4-b]pyridin-4-yl}-piperazin-1-yl-methanone], the inhibition at 1.14 µM is 99%. Still for that read-out and setting: the value for `O=C(c1cc(-c2ccc(O)cc2)nc2[nH]nc(/C=C/c3ccccc3)c12)N1CCNC[C@@H]1CO` [Example 16, ((R)-2-Hydroxymethyl-piperazin-1-yl)-[6-(4-hydroxy-phenyl)-3-((E)-styryl)-1H-pyrazolo[3,4-b]pyridin-4-yl]-methanone] was 96%. The same measure, in the same setting: the value for `O=C(c1cc(-c2ccc(O)cc2)nc2[nH]nc(CCc3ccccc3)c12)N1CCNCC1` [Example 17, [6-(4-Hydroxy-phenyl)-3-phenethyl-1H-pyrazolo[3,4-b]pyridin-4-yl]-piperazin-1-yl-methanone] was 94%. On the same count and under the same terms, the value for `O=C(c1ccc(/C=C/c2n[nH]c3nc(-c4ccc(O)cc4)cc(C(=O)N4CCNCC4)c23)cc1)N1CCCCC1` [Example 19, (6-(4-Hydroxy-phenyl)-3-{(E)-2-[4-(piperidine-1-carbonyl)-phenyl]-vinyl}-1Hpyrazolo[3,4-b]pyridin-4-yl)-piperazin-1-yl-methanone] was 99%.

Take `O=C(c1cc(-c2ccc(O)cc2)nc2[nH]nc(/C=C/c3cccc(N4CCCC4=O)c3)c12)N1CCNCC1` [Example 20, 1-(3-{(E)-2-[6-(4-Hydroxy-phenyl)-4-(piperazine-1-carbonyl)-1H-pyrazolo[3,4-b]pyridin-3-yl]-vinyl}-phenyl)-pyrrolidin-2-one]: the inhibition at 1.14 µM was determined as 115%. Same read-out and setting: the value for `Cc1ccc(/C=C/c2n[nH]c3nc(-c4ccc(O)cc4)cc(C(=O)N4CCNCC4)c23)cc1` [Example 21, [6-(4-Hydroxy-phenyl)-3-((E)-2-p-tolyl-vinyl)-1H-pyrazolo[3,4-b]-pyridin-4-yl]-piperazin-1-yl-methanone] was 98%. Same read-out and setting: the same measure for `CS(=O)(=O)c1cccc(/C=C/c2n[nH]c3nc(-c4ccc(O)cc4)cc(C(=O)N4CCNCC4)c23)c1` [Example 22, {6-(4-hydroxy-phenyl)-3-[(E)-2-(3-methanesulfonyl-phenyl)-vinyl]-1H-pyrazolo[3,4-b]-pyridin-4-yl}-piperazin-1-yl-methanone]: 100%. Still for that read-out and setting: the same measure for `CN(C)c1cccc(/C=C/c2n[nH]c3nc(-c4ccc(O)cc4)cc(C(=O)N4CCNCC4)c23)c1` [Example 23, [3-[(E)-2-(3-Dimethylamino-phenyl)-vinyl]-6-(4-hydroxy-phenyl)-1H-pyra-zolo[3,4-b]pyri-din-4-yl]-pipe-razin-1-yl-methanone]: 99%; for `CS(=O)(=O)c1ccc(/C=C/c2n[nH]c3nc(-c4ccc(O)cc4)cc(C(=O)N4CCNCC4)c23)cc1` [Example 24, {6-(4-hydroxy-phenyl)-3-[(E)-2-(4-methanesulfonyl-phenyl)-vinyl]-1H-pyra-zolo[3,4-b]pyri-din-4-yl}-pipe-razin-1-yl-methanone]: 99%.
